Measurements published in US9029414B2, “Triterpenoid compounds and methods of use thereof” (Biotechnology Research Corporation, priority 2008, dated 2015).

Columns and labels:
cortical neurons = assay: Cortical neuron survival assay against amyloid beta peptide excitotoxicity (MTT); type: cell-based, Sprague-Dawley rats; set-up: key: black bars represent compounds with strong protective effect; striped bars represent compounds with moderate effect; light-dotted bars represent compounds without or with effect less than 25%; conditions: compounds 2 hours prior to co-treatment with Aβ25-35 (10 μM) 24 hours
Method: FIG. 14. Derivatives of DA001 protect the cortical neurons from Aβ25-35 excitotoxicity. Cortical neurons were incubated with compounds (at various [μM]) derived from of DA001 2 hours prior to co-treatment with Aβ25-35 (10 μM) for 24 hours. 3-(4,5-Dimethylthiazol-2-yl)-2,5-diphenyltetrazolium bromide (MTT) assay was performed 24 hours after Aβ25-35 treatment. Data are expressed as mean fold change±s.e.m. compared to solvent control (DMSO). Dark-dotted bar represents data without addition of Aβ25-35, open bar represents solvent control, black bars represent compounds with strong protective effect while striped bars represent compounds with moderate effect, light-dotted bars represent compounds without or with effect less than 25%. *=P<0.05, **=P<0.005.
Cortical neurons were prepared from embryonic day 18 Sprague-Dawley rats. After the cortices had been removed from the brain, isolated cells were plated onto Poly d-Lysine (PDL) (P0899, Sigma)-coated 48 well plates (150687, NUNC) at a density of 1×10^5 cell per well using Neurobasal Medium (NB) (21103-049, Gibco) with B27 supplement (17504-044, Gibco), penicillin/streptomycin (15140, Gibco) and 1 mM L-glutamine (25030, Gibco). The cell culture was incubated at 37° C. in a humidified atmosphere of 5% CO2 in air. Medium was changed to growth medium (Neurobasal Medium with penicillin/streptomycin and B27 supplement) after 3 hours. Half medium was changed with growth medium every 2-3 days to maintain the cells until day 7 in vitro (7 DIV). Serial dilutions of samples were prepared in growth medium and DMSO was used as vehicle control. For pre-treating part, half of the medium was removed from wells, and equal amount of diluted samples were replaced. Cells were then incubated for 2 hours at 37° C. in a humidified atmosphere of 5% CO2 in air. Cortical neurons were then incubated with DA001 derived compounds (at various concentrations in [μM]) together with Aβ25-35 (10 μM, Sigma) for 24 hours. Quantification of living cells are measured by MTT (3-(4,5-Dimethylthiazol-2-yl)-2,5-diphenyltetrazolium bromide, USB) assay performed 24 hours after Aβ25-35 treatment. Yellow MTT is reduced to purple formazan in the mitochondria of living cells. A solubilization solution [10% SDS (sodium dodecyl sulfate)/0.01 M hydrochloric acid] is added to dissolve the insoluble purple formazan product into a colored solution which was then quantified at wavelength 570 nm using a spectrophotometer (DYNEX Technologies).
A total of 90 derivatives of DA001 were synthesized, and their effect on cortical neurons survival against amyloid beta peptide (Aβ25-35) excitotoxicity was examined. […] Compounds with strong protective effect are DA002, DA005, DA007, DA016, DA018, DA019, DA042, DA044, DA060 and DA072.

BALB/c mice = assay: Murine model of oxazolone-induced ear edema; type: in vivo; conditions: topical, positive control
Method: This is a contract research performed by Washington Biotechnology Inc., Columbia, Md., protocol 1041. On day 0, 42 BALB/c mice (female, Harlan Sprague-Dawley, 5-6 weeks) were shaved on the ventral surface of the right ear. 100 μl of the 5% oxazolone solution (Sigma) was then applied to the saved ear. The treated mice were then returned to the cage and kept for additional 6 days. On day 7, the mice were weighed and dosed orally with 10 ml/kg water or DA021 at either 30 mg/kg or 100 mg/kg or topically applied on both sides of both ears with 25 μl betamethasone. Thirty minutes after oral dosing, 5 μl of 3% oxazolone was applied to both sides of the right ear and 5 μl of acetone was applied to both sides of the contralateral ear. Twenty-four hours after 3% oxazolone/acetone application, the mice were euthanized, the ears removed and weighed.
To evaluate the efficacy and potency of DA021 in acute inflammation, an oxazolone-induced ear edema model was carried out in mice. Oxazolone-induced ear edema model is a commonly used skin inflammatory animal model. Oxazolone (OA) is an allergen that induces immunological responses that lead to surface edema. […] Betamethasone (BMS) which was used as a positive control, is a corticosteroid that is used as an anti-itching cream and other anti-inflammatory remedies.
Mice were then treated with betamethasone (BMS, mg, topical) or DA021 (mg/kg, p.o.) and the ears were removed and weighed. N=10 per group, significance (p-value) was calculated versus OA+vehicle using the Student's T-test, *=P≦1×10^−7, #=P≦1×10^−12.

[1] = system: C57BL/6 mice immunized with MOG; assay: Experimental autoimmune encephalomyelitis (EAE) behavioral scores; type: in vivo; conditions: 100 mg/kg oral daily from day of immunization
Method: FIG. 15 illustrates that DA001 improves the behavioral scores of mice with experimental autoimmune encephalomyelitis. C57BL/6 mice were immunized subcutaneously at both sides of their hind limbs with myelin oligodendrocyte glycoprotein (MOG)/Complete Freund's Adjuvant (CFA) kit (Hooke Laboratories) and performed as indicated in the manufacturer's instruction. Albumin/CFA kit (Hooke Laboratories) were used as an immunization control. Oral administration of DA001 at 100 mg/kg was given daily starting from the day of immunization. The vehicle (water) was given to mice injected with MOG or albumin daily via oral administration. Animals were weighed and monitored daily and behavioral impairment was quantified based on the clinical scale. The graph presented here is a composite of four separate EAE trials. **=p≦0.01.
FIG. 16 illustrates that DA002 improves the behavioral scores of mice with experimental autoimmune encephalomyelitis. C57BL/6 mice were immunized subcutaneously at both sides of their hind limbs with myelin oligodendrocyte glycoprotein (MOG)/Complete Freund's Adjuvant (CFA) kit (Hooke Laboratories) and performed as indicated in the manufacturer's instruction. […] Animals were weighed and monitored daily and behavioral impairment was quantified based on the clinical scale. *=p≦0.05.
C57BL/6 mice were immunized subcutaneously at both sides of their hind limbs with myelin oligodendrocyte glycoprotein (MOG)/Complete Freund's Adjuvant (CFA) kit (Hooke Laboratories) and performed as in manufacturer's instruction. […] Animals were weighed and monitored daily and behavioral impairment was quantified based on the clinical scale. […]
On day 0, six-week old male C57BL/6 mice (Hong Kong University of Science and Technology, Animal Care facility) were immunized with 100 μg of myelin oligodendrocyte glycoprotein peptide (MOG35-55)/complete Freund's Adjuvant (CFA) emulsion kit (Hooke Laboratories) was injected subcutaneously at both sides of the tail base. […] The animals were also weighed and the neurological impairment was quantified daily based on the previously published criteria. […]

[2] = system: LPS-induced TNF-α in serum; assay: Murine model of lipopolysaccharide-induced cytokine production; type: in vivo, Swiss-Webster mice; conditions: 10 mg/kg orally, positive control
Method: This is a contract research performed by Washington Biotechnology Inc., Columbia, Md., protocol 1077. Swiss-Webster mice (female, Harlan Sprague-Dawley, 5-6 weeks) were weighed and dosed orally with 10 ml/kg water, prednisolone at 10 mg/kg, or DA021 at 30 mg/kg or 100 mg/kg. Thirty minutes after oral dosing, lipopolysaccharides (LPS) at 2 mL/kg was injected. Two hours after LPS injection, the mice were anesthetized and exsanguinated into serum separator micro-container tubes. The blood was processed to serum. The serum samples were assayed for tumor necrosis factor-α (TNFα) concentration by ELISA (Pierce) according to the manufacturer's protocol.
Evaluation of the efficacy and potency of orally administered DA021 to inhibit the lipopolysaccharide (LPS)-induced release of tumor necrosis factor-α (TNF-α) in mice was carried out. LPS is a widely used endotoxin, isolated from the bacteria, E. coli in inducing acute inflammation in an organism. Prednisolone is a synthetic corticosteroid drug that is commonly used in inflammatory reactions. It is a broad range immunosuppressant. Based on FIG. 29, there was a marked increase in the amount of TNF-α in serum upon LPS treatment in mice.
Two hours after LPS injection, the serum was collected from the mice. The serum samples were assayed for tumor necrosis factor-α (TNFα) concentration by ELISA (Pierce) according to the manufacturer's protocol. N=10, significance was calculated versus LPS+vehicle using the Student's T-test, *=p≦0.05, #=p≦1×10^−4.

SMILES	protective effect against Aβ25-35 excitotoxicity (cortical neurons)	also measured
C=C(C)[C@@H]1CC[C@]2(C(=O)NCc3ccccc3)CC[C@]3(C)C(CCC4[C@@]5(C)CC[C@H](O)[C@@](C)(CO)[C@@H]5CC[C@]43C)C12 (stereo partly shown) [DA042]	strong	
C=C(C)[C@@H]1CC[C@]2(C(=O)O)CC[C@]3(C)C(CCC4[C@@]5(C)CC/C(=N\O)[C@@](C)(CO)[C@@H]5CC[C@]43C)C12 (stereo partly shown) [DA019]	strong	
C=C(C)[C@@H]1CC[C@]2(C(=O)O)CC[C@]3(C)C(CCC4[C@@]5(C)CCC(=O)[C@@](C)(COC(C)=O)[C@@H]5CC[C@]43C)C12 (stereo partly shown) [DA016]	strong	
C=C(CNCc1ccccc1)[C@@H]1CC[C@]2(C(=O)O)CC[C@]3(C)C(CC[C@@H]4[C@@]5(C)CC[C@H](OC(C)=O)[C@@](C)(COC(C)=O)[C@@H]5CC[C@]43C)[C@@H]12 (stereo partly shown) [DA072, 30-N-Benzylamino-3,23-diacetoxy-betulinic acid]	strong	
C=C(C)[C@@H]1CC[C@]2(C(=O)O)CC[C@]3(C)C(CCC4[C@@]5(C)CC[C@H](OC(C)=O)[C@@](C)(CO)[C@@H]5CC[C@]43C)C12 (stereo partly shown) [DA007]	strong	
C[C@H]1C[C@H]2[C@@H]3CCC4=CC(=O)C=C[C@]4(C)[C@@]3(F)[C@@H](O)C[C@]2(C)[C@@]1(O)C(=O)CO [Betamethasone, reference compound]		Change in Ear Weight (mg), Average (BALB/c mice): 17.4 mg; Change in Ear Weight, % Inhibition (BALB/c mice): 75.4%
C=C(C)[C@@H]1CC[C@]2(C(=O)O)CC[C@]3(C)C(CCC4[C@@]5(C)CCC(=O)[C@@](C)(CO)[C@@H]5CC[C@]43C)C12 (stereo partly shown) [DA018]	strong	
C=C(C)[C@@H]1CC[C@]2(C(=O)O)CC[C@]3(C)C(CCC4[C@@]5(C)CC[C@H](O)[C@@](C)(CO)[C@@H]5CC[C@]43C)C12 (stereo partly shown) [DA002]	strong	EAE scores vs vehicle-treated EAE mice [1]: significant decrease in the EAE scores
C=C(C)[C@@H]1CC[C@]2(C(=O)O)CC[C@]3(C)C(CCC4[C@@]5(C)CC[C@H](O[C@@H]6OC[C@H](OC(C)=O)[C@H](OC(C)=O)[C@H]6O[C@@H]6O[C@@H](C)[C@H](OC(C)=O)[C@@H](OC(C)=O)[C@H]6OC(C)=O)[C@@](C)(COC(C)=O)[C@@H]5CC[C@]43C)C12 (stereo partly shown) [DA044]	strong	
C[C@]12C=CC(=O)C=C1CC[C@@H]1[C@@H]2[C@@H](O)C[C@@]2(C)[C@H]1CC[C@]2(O)C(=O)CO [Prednisolone, reference compound]		LPS-induced TNF-α level [2]: dramatically decreased
C=C(COC(C)=O)[C@@H]1CC[C@]2(C(=O)O)CC[C@]3(C)C(CC[C@@H]4[C@@]5(C)CC[C@H](OC(C)=O)[C@@](C)(COC(C)=O)[C@@H]5CC[C@]43C)[C@@H]12 (stereo partly shown) [DA060, 3,23,30-Triacetoxy-betulinic acid]	strong	
